Assay results: patent US5385908A, “Hindered esters of rapamycin” (American Home Products Corporation, priority 1993, dated 1995)
Counter-ions that a name gives are not always drawn. Like-named read-outs stand apart in the source and are kept apart here.

Assays:
[1] = tested on: immune mediated inflammation (uninjected hind paw); assay: adjuvant arthritis standard pharmacological test procedure; assay type: in vivo, male inbread Wistar Lewis rats; conditions: for Percent change in adjuvant arthritis versus control: 2 mg/kg oral
Description: (§1) Immunosuppressive activity for representative compounds of this invention was evaluated in an in vitro standard pharmacological test procedure to measure lymphocyte proliferation (LAF) and in three in vivo standard pharmacological test procedures. The pinch skin graft test procedure measures the immunosuppressive activity of the compound tested as well as the ability of the compound tested to inhibit or treat transplant rejection. The adjuvant arthritis standard pharmacological test procedure, which measures the ability of the compound tested to inhibit immune mediated inflammation. The adjuvant arthritis test procedure is a standard pharmacological test procedure for rheumatoid arthritis. Representative compounds of this invention were also evaluated in a heart allograft standard pharmacological test procedure which measures immunosuppressive activity of the compound tested as well as the ability of the compound tested to inhibit or treat transplant rejection. The procedures for these standard pharmacological test procedures are provided below.
The adjuvant arthritis standard pharmacological test procedure measures the ability of test compounds to prevent immune mediated inflammation and inhibit or treat rheumatoid arthritis. The following briefly describes the test procedure used. A group of rats (male inbread Wistar Lewis rats) are pre-treated with the compound to be tested (1 h prior to antigen) and then injected with Freud's Complete Adjuvant (FCA) in the right hind paw to induce arthritis. The rats are then orally dosed on a Monday, Wednesday, Friday schedule from day 0-14 for a total of 7 doses. Both hind paws are measured on days 16, 23, and 30. The difference in paw volume (mL) from day 16 to day 0 is determined and a percent change from control is obtained. […] The right hind paw inflammation, on the other hand, is caused by nonspecific inflammation. Compounds were tested at a dose of 2 mg/kg.

[2] = tested on: cells from the thymus of normal BALB/c mice (lymphocyte proliferation); assay: comitogen-induced thymocyte proliferation procedure (LAF); assay type: cell-based; conditions: read-out: LAF IC50
Description: as §1
The comitogen-induced thymocyte proliferation procedure (LAF) was used as an in vitro measure of the immunosuppressive effects of representative compounds. Briefly, cells from the thymus of normal BALB/c mice are cultured for 72 hours with PHA and IL-1 and pulsed with tritiated thymidine during the last six hours. Cells are cultured with and without various concentrations of rapamycin, cyclosporin A, or test compound. Cells are harvested and incorporated radioactivity is determined. Inhibition of lymphoproliferation is assessed as percent change in counts per minute from non-drug treated controls. For each compound evaluated, rapamycin was also evaluated for the purpose of comparison. An IC50 was obtained for each test compound as well as for rapamycin. […] The results obtained are provided as an IC50.

[3] = tested on: pinch skin graft; assay: pinch skin graft survival test procedure; assay type: in vivo, male BALB/c donors transplanted to male C3H(H-2K) recipients; conditions: 4 mg/kg, intraperitoneally or orally; mean ± S.D.; untreated rejected within 6-7 days
Description: as §1
Representative compounds of this invention were also evaluated in an in vivo test procedure designed to determine the survival time of pinch skin graft from male BALB/c donors transplanted to male C3 H(H-2K) recipients. The method is adapted from Billingham R. E. and Medawar P. B., J. Exp. Biol. 28:385-402, (1951 ). Briefly, a pinch skin graft from the donor was grafted on the dorsum of the recipient as a allograft, and an isograft was used as control in the same region. The recipients were treated with either varying concentrations of test compounds intraperitoneally or orally. Rapamycin was used as a test control. Untreated recipients serve as rejection control. The graft was monitored daily and observations were recorded until the graft became dry and formed a blackened scab. This was considered as the rejection day. The mean graft survival time (number of days±S.D.) of the drug treatment group was compared with the control group. […] Results are expressed as the mean survival time in days. Untreated (control) pinch skin grafts are usually rejected within 6-7 days. Compounds were tested using a dose of 4 mg/kg.

[4] = tested on: heart allograft; assay: heterotropic heart allograft standard pharmacological test procedure; assay type: in vivo, BN rat neonate donors, male Lewis rat recipients; conditions: untreated rejected in about 9-10 days
Description: as §1
The ability of the compounds of this invention to induce immunosuppression and inhibit or treat transplantation rejection was evaluated in a heterotropic heart allograft standard pharmacological test procedure that emulates transplantation rejection that occurs in humans. The following briefly describes the procedure that was used. […]

[5] = tested on: Candida albicans; conditions: in vitro and in vivo; cited from earlier work
[6] = tested on: IgE-like antibodies; conditions: in vivo; cited from earlier work
[7] = tested on: experimental allergic encephalomyelitis; conditions: model for multiple sclerosis; cited from earlier work
[8] = Mus musculus, Lymphocyte, PHA and IL-1, 72 hours culture, tritiated thymidine last six hours

Row | SMILES | Percent change in adjuvant arthritis versus control ([1]; day 16) [%] | IC50 [2, 8] [nM] | Skin graft survival (mean survival time) [3] [days] | further results
1 | CO[C@H]1C[C@@H]2CC[C@@H](C)[C@@](O)(O2)C(=O)C(=O)N2CCCC[C@H]2C(=O)O[C@H]([C@H](C)C[C@@H]2CC[C@@H](OC(=O)C(C)(C)Cc3cccnc3)[C@H](OC)C2)CC(=O)[C@H](C)/C=C(\C)[C@@H](O)[C@@H](OC)C(=O)[C@H](C)C[C@H](C)/C=C/C=C/C=C/1C [Example 2, Rapamycin 42-ester with 2,2-dimethyl-3-(3-pyridinyl) propionic acid] | -62 | 0.83 | 13.6 ± 0.6 | Heart allograft (mean graft survival time) ([4]; i.p., 300 μg/day): 29 days; Heart allograft (mean graft survival time) ([4]; p.o.): 11.5 days
2 | CO[C@H]1C[C@@H]2CC[C@@H](C)[C@@](O)(O2)C(=O)C(=O)N2CCCC[C@H]2C(=O)O[C@H]([C@H](C)C[C@@H]2CC[C@@H](OC(=O)C(C)(C)Cc3cccnc3)[C@H](OC)C2)CC(=O)[C@H](C)/C=C(\C)[C@@H](O)[C@@H](OC)C(=O)[C@H](C)C[C@H](C)/C=C/C=C/C=C/1C [Example 3, Rapamycin 42-ester with 2,2-dimethyl-3-(3-pyridinyl) propionic acid hydrochloride salt] | – | – | – | Percent change in adjuvant arthritis versus control ([1]; day 16, hydrochloride salt): -73%; IC50 ([2]; PHA and IL-1, 72 hours culture, tritiated thymidine last six hours, hydrochloride salt): 1.03 nM
3 | CO[C@H]1C[C@@H]2CC[C@@H](C)[C@@](O)(O2)C(=O)C(=O)N2CCCC[C@H]2C(=O)O[C@H]([C@H](C)C[C@@H]2CC[C@@H](OC(=O)C(C)(C)CCc3ccccn3)[C@H](OC)C2)CC(=O)[C@H](C)/C=C(\C)[C@@H](O)[C@@H](OC)C(=O)[C@H](C)C[C@H](C)/C=C/C=C/C=C/1C [Example 5, Rapamycin 42-ester with 2,2-dimethyl-4-(2-pyridinyl) butyric acid] | -75 | 0.58 | – | –
4 | CO[C@H]1C[C@@H]2CC[C@@H](C)[C@@](O)(O2)C(=O)C(=O)N2CCCC[C@H]2C(=O)O[C@H]([C@H](C)C[C@@H]2CC[C@@H](OC(=O)C(C)(C)CCCc3cccnc3)[C@H](OC)C2)CC(=O)[C@H](C)/C=C(\C)[C@@H](O)[C@@H](OC)C(=O)[C@H](C)C[C@H](C)/C=C/C=C/C=C/1C [Example 6, Rapamycin 42-ester with 2,2-dimethyl-5-(3-pyridinyl) pentanoic acid] | -45 | 3 | 12.50 ± 0.55 | –
5 | CO[C@H]1C[C@@H]2CC[C@@H](C)[C@@](O)(O2)C(=O)C(=O)N2CCCC[C@H]2C(=O)O[C@H]([C@H](C)C[C@@H]2CC[C@@H](OC(=O)C(C)(C)Cc3ccccn3)[C@H](OC)C2)CC(=O)[C@H](C)/C=C(\C)[C@@H](O)[C@@H](OC)C(=O)[C@H](C)C[C@H](C)/C=C/C=C/C=C/1C [Example 7, Rapamycin 42-ester with 2,2-dimethyl-3-(2-pyridinyl) propionic acid] | -78 | 0.6 | – | –
6 | CO[C@H]1C[C@@H]2CC[C@@H](C)[C@@](O)(O2)C(=O)C(=O)N2CCCC[C@H]2C(=O)O[C@H]([C@H](C)C[C@@H]2CC[C@@H](OC(=O)C(C)(C)CCc3cccnc3)[C@H](OC)C2)CC(=O)[C@H](C)/C=C(\C)[C@@H](O)[C@@H](OC)C(=O)[C@H](C)C[C@H](C)/C=C/C=C/C=C/1C [Example 8, Rapamycin 42-ester with 2,2-dimethyl-4-(3-pyridinyl) butyric acid] | -50 | 1.2 | – | –
7 | CO[C@H]1C[C@@H]2CC[C@@H](C)[C@@](O)(O2)C(=O)C(=O)N2CCCC[C@H]2C(=O)O[C@H]([C@H](C)C[C@@H]2CC[C@@H](OC(=O)C(C)(C)Cc3ccncc3)[C@H](OC)C2)CC(=O)[C@H](C)/C=C(\C)[C@@H](O)[C@@H](OC)C(=O)[C@H](C)C[C@H](C)/C=C/C=C/C=C/1C [Example 9, Rapamycin 42-ester with 2,2-dimethyl-3-(4-pyridinyl) propionic acid] | -73 | 0.84 | 11.17 ± 1.47 | –
8 | CO[C@H]1C[C@@H]2CC[C@@H](C)[C@@](O)(O2)C(=O)C(=O)N2CCCC[C@H]2C(=O)O[C@H]([C@H](C)C[C@@H]2CC[C@@H](OC(=O)C3(C)CCN(C)CC3)[C@H](OC)C2)CC(=O)[C@H](C)/C=C(\C)[C@@H](O)[C@@H](OC)C(=O)[C@H](C)C[C@H](C)/C=C/C=C/C=C/1C [Example 12, Rapamycin 42-ester with 1,4-dimethylpiperidine-4-carboxylic acid] | -75 | 0.58 | 12.83 ± 1.47 | –
9 | CO[C@H]1C[C@@H]2CC[C@@H](C)[C@@](O)(O2)C(=O)C(=O)N2CCCC[C@H]2C(=O)O[C@H]([C@H](C)C[C@@H]2CC[C@@H](OC(=O)C3(C)CCCCN3C(=O)c3ccccc3)[C@H](OC)C2)CC(=O)[C@H](C)/C=C(\C)[C@@H](O)[C@@H](OC)C(=O)[C@H](C)C[C@H](C)/C=C/C=C/C=C/1C (stereo partly shown) [Example 13, Rapamycin 42-ester with 1-benzoyl-2-methyl-piperidine-2-carboxylic acid] | – | 2.9 | – | –
10 | CO[C@H]1C[C@@H]2CC[C@@H](C)[C@@](O)(O2)C(=O)C(=O)N2CCCC[C@H]2C(=O)O[C@H]([C@H](C)C[C@@H]2CC[C@@H](O)[C@H](OC)C2)CC(=O)[C@H](C)/C=C(\C)[C@@H](O)[C@@H](OC)C(=O)[C@H](C)C[C@H](C)/C=C/C=C/C=C/1C [rapamycin] | – | – | – | less immune induced inflammation than control rats ([1]; rapamycin treated rats, day 16): 70-90%; antifungal activity (in words) [5]: antifungal activity, particularly against Candida albicans, both in vitro and in vivo; IC50 ([2]; Mus musculus, Lymphocyte): 0.5 to 1.9 nM; inhibition of formation of IgE-like antibodies (in words) [6]: effectively inhibited the formation of IgE-like antibodies; effect in experimental allergic encephalomyelitis model (in words) [7]: effective in the experimental allergic encephalomyelitis model
